Results as given in paper PMC7438329 (Scientific Reports, 2020).
Structures can show the parent of a compound that is named as a salt. Where two headings read alike, the source gives them in different places.

Experiments:
[1] = test system: zebrafish embryos; assay type: in vivo, zebrafish (Danio rerio)
Protocol: To this end, three zebrafish embryos were treated with a drug (10 ~ 100 μM) in a well of 96-well plate at the onset of 24 hpf and then assayed for touch responses at 27 and 48 hpf, when zebrafish embryos show tactile-induced short-distance forward movement and escape swimming, respectively.
Two chemical libraries from Kyoto University and Nagoya University, composed of total ~ 1,000 bioactive compounds, were used in this study. The 2 µl of chemical compounds (1 ~ 10 mM) dissolved in DMSO were diluted to 200 µl with E3 medium (5 mM NaCl, 0.17 mM KCl, 0.33 mM CaCl2, 0.33 mM MgSO4) and transferred to 96-well plate. Three zebrafish embryos (24 hpf) were transferred into each well of the plate and incubated in a 28.5 °C incubator. At 27 hpf, three embryos with a small amount of drug solution were transferred to a 90-mm dish containing 15 ml of E3 medium and subjected to touch response using forceps under a dissection microscope Leica MZ16. After this assay, embryos with a small amount of E3 solution were transferred back to the drug solution in 96-well plate and incubated in the 28.5 °C incubator. At 48 hpf, embryos were transferred to a 90-mm dish containing 15 ml of E3 medium again and subjected to the touch response.

[2] = test system: zebrafish embryos; assay type: in vivo, zebrafish (Danio rerio); remark: listed apart in the source
[3] = target: T1, zGlyR α1 (Danio rerio, UniProt O93430); assay: two-electrode voltage-clamp of Xenopus oocytes expressing homomeric zebrafish α1 GlyR; assay type: cell-based
T1 construct: Full-length cDNAs encoding zebrafish GlyR α1 and βb and human GlyR α1 and β subunits were used in this study; expressed in transfected cells; host or cells: Xenopus laevis oocytes injected with cRNA
T1 sequence (O93430 25-444): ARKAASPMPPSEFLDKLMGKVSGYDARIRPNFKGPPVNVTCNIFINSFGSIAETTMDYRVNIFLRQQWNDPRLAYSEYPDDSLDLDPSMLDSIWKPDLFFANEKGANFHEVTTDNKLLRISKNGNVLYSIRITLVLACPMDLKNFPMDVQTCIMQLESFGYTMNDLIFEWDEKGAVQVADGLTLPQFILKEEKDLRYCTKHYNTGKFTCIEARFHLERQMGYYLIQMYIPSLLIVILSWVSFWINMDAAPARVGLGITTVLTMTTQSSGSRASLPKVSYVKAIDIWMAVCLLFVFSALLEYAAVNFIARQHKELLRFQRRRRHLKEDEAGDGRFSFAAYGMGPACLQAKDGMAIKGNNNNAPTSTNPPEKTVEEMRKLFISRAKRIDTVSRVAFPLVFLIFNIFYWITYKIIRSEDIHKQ
Protocol: (§1) To assess the drug sensitivity of GlyRs, we employed electrophysiology using Xenopus oocytes.
(§2) Full-length cDNAs encoding zebrafish GlyR α1 and βb and human GlyR α1 and β subunits were used in this study. Capped cRNAs for expression in Xenopus laevis oocytes were synthesized from linearized templates using SP6 mMessage mMachine SP6 transcription kit (Thermo Fisher Scientific) as described previously. Oocytes were injected with five femtomoles of cRNA using a Nanoject II (Drummond Scientific). Oocytes were moved to 48-well plates in Barth’s solution (88 mM NaCl, 1 mM KCl, 2.4 mM NaHCO3, 0.33 mM Ca (NO3)2, 0.41 mM CaCl2, 0.82 mM MgSO4, 10 mM HEPES at pH 7.5 with NaOH, supplemented with 50 µg/ml gentamicin and 100 units/ml penicillin/streptomycin) and incubated at 18 °C for 24–48 h prior to recording. Oocyte recording solution (90 mM NaCl, 1 mM KCl, 2 mM CaCl2, 1 mM MgCl2, 10 mM HEPES at pH 7.5 with NaOH) and drug solutions of seven different concentrations were flew into the oocyte chamber using a BPS-8 solution switcher (ALA Scientific). Borosilicate electrodes had resistances of ~ 2.0 MΩ when filed with 3 M KCl. […] Signals were low-pass filtered at 10 Hz, and sampled at 100 Hz. […] Statistical significance was assessed using the pair-wise analysis of variance.

[4] = target: T2, zebrafish GlyRs (Danio rerio, UniProt O93430); assay: cell-based; assay type: cell-based; details: rounded value in discussion; read-out: IC50 values of GlyRs expressed in Xenopus oocytes
T2 sequence (O93430 25-444): T1 sequence (O93430 25-444)
Protocol: as §2

[5] = target: T3, hGlyR α1 + hGlyRβb (Homo sapiens, UniProt P23415+P48167); assay: two-electrode voltage-clamp of Xenopus oocytes expressing heteromeric human α1β GlyR; assay type: cell-based
T3 construct: Full-length cDNAs encoding zebrafish GlyR α1 and βb and human GlyR α1 and β subunits were used in this study; expressed in transfected cells; host or cells: Xenopus laevis oocytes injected with cRNA
Protocol: as §1
(§3) We also investigated whether niflumic acid blocks human GlyRs.
as §2

[6] = target: T4, hGlyR α1 (Homo sapiens, UniProt P23415); assay: two-electrode voltage-clamp of Xenopus oocytes expressing homomeric human α1 GlyR; assay type: cell-based
T4 construct: Full-length cDNAs encoding zebrafish GlyR α1 and βb and human GlyR α1 and β subunits were used in this study; expressed in transfected cells; host or cells: Xenopus laevis oocytes injected with cRNA
T4 sequence (P23415 29-457): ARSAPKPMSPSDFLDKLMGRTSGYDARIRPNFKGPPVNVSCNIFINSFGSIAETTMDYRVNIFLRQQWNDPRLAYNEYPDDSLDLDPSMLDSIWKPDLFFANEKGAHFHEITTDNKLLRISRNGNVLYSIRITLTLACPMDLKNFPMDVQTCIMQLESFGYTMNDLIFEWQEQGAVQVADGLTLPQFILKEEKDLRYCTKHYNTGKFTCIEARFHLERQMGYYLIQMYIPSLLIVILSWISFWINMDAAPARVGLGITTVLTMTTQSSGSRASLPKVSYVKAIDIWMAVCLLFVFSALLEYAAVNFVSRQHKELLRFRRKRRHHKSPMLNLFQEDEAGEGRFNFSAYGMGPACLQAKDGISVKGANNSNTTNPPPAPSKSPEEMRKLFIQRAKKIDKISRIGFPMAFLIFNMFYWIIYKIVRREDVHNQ
Protocol: as §1, §3, §2

[7] = target: zGlyR α1 + zGlyRβb (Danio rerio, UniProt O93430+Q6DC22); assay: two-electrode voltage-clamp of Xenopus oocytes expressing heteromeric zebrafish α1βb GlyR; assay type: cell-based
Protocol: as §1, §2

[8] = statement in discussion, no reference given; cited from earlier work
[9] = test system: zebrafish embryos; assay: video recording of zebrafish touch response at 48 hpf in the presence of drug; assay type: in vivo, zebrafish (Danio rerio); details: for tactile response of zebrafish embryos at 48 hpf: bath application 30 min: 70 μM strychnine, 5 mM picrotoxin, 200 μM nifedipine, 500 μM niflumic acid; for drug concentration efficient for inducing abnormal touch response: zebrafish embryos 48 hpf, bath application
From the text: Tactile-evoked zebrafish movements in the presence of control 1% DMSO or drug were video recorded at 48 hpf using a dissection microscope. Touch responses elicited by tactile stimulation delivered to the tail with forceps were captured with a high-speed CCD camera at 200 frames per second (HAS-220, Ditect) as described previously.

[10] = test system: homomeric α GlyRs; details: mammals; cited from earlier work
[11] = test system: heteromeric αβ GlyRs; details: mammals; cited from earlier work
[12] = drug 10 ~ 100 μM, 1% DMSO, from 24 hpf, touch responses at 27 and 48 hpf
[13] = purchased drugs, several different concentrations
[14] = with 200 μM glycine, mean ± SEM, 10 oocytes
[15] = read-out: IC50 of inhibition of glycine current, with 200 μM glycine, mean ± SEM, 10 oocytes

zGlyR α1 + zGlyRβb, sequence (Q6DC22 entry or part of it, one chain of several): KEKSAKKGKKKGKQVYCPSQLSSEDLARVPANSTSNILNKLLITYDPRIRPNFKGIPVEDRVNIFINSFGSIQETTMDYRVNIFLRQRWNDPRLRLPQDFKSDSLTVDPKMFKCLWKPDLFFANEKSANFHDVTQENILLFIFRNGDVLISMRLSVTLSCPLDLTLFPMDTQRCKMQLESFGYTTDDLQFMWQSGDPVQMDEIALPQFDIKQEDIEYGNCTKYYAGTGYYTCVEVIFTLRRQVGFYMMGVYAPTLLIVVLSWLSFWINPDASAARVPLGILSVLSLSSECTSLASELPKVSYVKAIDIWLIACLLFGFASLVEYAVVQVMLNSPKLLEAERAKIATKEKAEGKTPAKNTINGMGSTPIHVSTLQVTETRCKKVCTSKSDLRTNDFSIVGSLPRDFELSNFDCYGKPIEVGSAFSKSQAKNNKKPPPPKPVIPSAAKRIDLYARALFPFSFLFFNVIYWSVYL
T3 sequence (P48167 23-497, one chain of several): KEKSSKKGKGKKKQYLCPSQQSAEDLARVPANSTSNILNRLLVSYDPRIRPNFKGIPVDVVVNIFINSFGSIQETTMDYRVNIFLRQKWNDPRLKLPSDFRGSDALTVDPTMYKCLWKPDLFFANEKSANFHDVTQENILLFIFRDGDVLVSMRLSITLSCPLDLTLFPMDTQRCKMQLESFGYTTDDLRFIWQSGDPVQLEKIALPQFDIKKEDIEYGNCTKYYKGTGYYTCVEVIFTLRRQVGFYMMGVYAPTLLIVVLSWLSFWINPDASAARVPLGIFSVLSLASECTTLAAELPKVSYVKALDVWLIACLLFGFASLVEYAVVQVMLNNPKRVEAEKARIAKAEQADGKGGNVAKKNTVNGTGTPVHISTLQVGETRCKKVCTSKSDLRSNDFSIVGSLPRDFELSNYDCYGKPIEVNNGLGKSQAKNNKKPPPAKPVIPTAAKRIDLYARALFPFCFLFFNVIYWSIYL

Compound: CCCCCC[C@H]1C(=O)O[C@H](C)[C@H](NC(=O)c2cccc(NC=O)c2O)C(=O)O[C@@H](C)[C@@H]1OC(=O)CC(C)C [Antimycin A]
- Response 1st screening [1, 12]: Weird contraction
- Response 2nd screening [2, 13]: Normal

Compound: O=c1oc2ccccc2c(O)c1Cc1c(O)c2ccccc2oc1=O [Dicumarol]
- Response 1st screening [1, 12]: Weird contraction
- Response 2nd screening [2, 13]: Normal

Compound: Cc1c(-c2ccccc2)oc2c(C(=O)OCCN3CCCCC3)cccc2c1=O [Flavoxate hydrochloride]
- Response 1st screening [1, 12]: Weird contraction
- Response 2nd screening [2, 13]: Normal

Compound: CC(N)CCCC(C)(C)O (stereo not shown) [Heptaminol hydrochloride]
- Response 1st screening [1, 12]: Body shrinkage
- Response 2nd screening [2, 13]: Normal

Compound: Cc1cccc(Nc2ccccc2C(=O)O)c1C [Mefenamic acid]
- Response 1st screening [1, 12]: Body shrinkage
- Response 2nd screening [2, 13]: Normal

Compound: COC(=O)C1=C(C)NC(C)=C(C(=O)OC)C1c1ccccc1[N+](=O)[O-] [Nifedipine]
- IC50 [3]: 239 ± 38 µM
- Hill coeff of drug-mediated inhibition [3, 14]: 0.5 ± 0.1
- Response 1st screening ([1]; zebrafish, in vivo): Body shrinkage
- Response 2nd screening ([2]; zebrafish, in vivo): Body shrinkage
- IC50 [4]: 200 µM
- IC50 [5]: 130 ± 27 µM
- Hill coeff of drug-mediated inhibition [5, 14]: 0.9 ± 0.2
- IC50 [6]: 171 ± 30 µM
- Hill coeff of drug-mediated inhibition [6, 14]: 1.1 ± 0.2
- Hill coeff of drug-mediated inhibition [7]: 0.4 ± 0.0
- IC50 [7]: 162 ± 24 µM

Compound: O=C(O)c1cccnc1Nc1cccc(C(F)(F)F)c1 [Niflumic acid]
- IC50 [3]: 801 ± 91 µM
- Hill coeff of drug-mediated inhibition [3, 14]: 0.5 ± 0.1
- Response 1st screening [1, 12]: Weird contraction
- solubility in water [8]: insoluble to water
- Response 2nd screening [2, 13]: Body shrinkage
- tactile response of zebrafish embryos at 48 hpf [9]: touch-evoked shrinkage of the body
- drug concentration efficient for inducing abnormal touch response [9]: 500 µM
- IC50 [4]: 400 µM
- IC50 [5]: 930 ± 111 µM
- Hill coeff of drug-mediated inhibition [5, 14]: 1.1 ± 0.1
- IC50 [6]: 1070 µM
- Hill coeff of drug-mediated inhibition [6, 14]: 1.1 ± 0.2
- IC50 [7]: 426 µM
- Hill coeff of drug-mediated inhibition [7, 14]: 0.9 ± 0.1

Compound: Cl.Cl.c1ccc2c3c([nH]c2c1)C1C2CCC(C4CCCNC42)N1CC3 (stereo not shown) [Nitrarine dihydrochloride]
- Response 1st screening [1, 12]: Weird contraction
- Response 2nd screening [2, 13]: Normal

Compound: COc1ccc(Cc2nccc3cc(OC)c(OC)cc23)cc1OC [Papaverine hydrochloride]
- Response 1st screening [1, 12]: Weird contraction
- Response 2nd screening [2, 13]: Normal

Compound: O=C1C[C@@H]2OCC=C3CN4CC[C@]56c7ccccc7N1[C@H]5[C@H]2[C@H]3C[C@H]46 [Strychnine]
- Hill coeff of drug-mediated inhibition [3]: 0.7 ± 0.2
- Response 1st screening [1, 12]: Body shrinkage
- Response 2nd screening [2, 13]: Body shrinkage
- tactile response of zebrafish embryos at 48 hpf [9]: bilateral trunk contractions resulting in the shrinkage of the body
- Hill coeff of drug-mediated inhibition [5]: 0.8 ± 0.1
- IC50 [5]: 0.092 ± 0.019 µM
- Hill coeff of drug-mediated inhibition [6]: 1.0 ± 0.1
- IC50 [6]: 0.072 ± 0.012 µM

Compound: NCC(=O)O [glycine, Glycine]
- Hill coefficient of glycine-dependent gating ([3]; mean ± SEM, 10 oocytes): 2.7 ± 0.1
- EC50 ([3]; mean ± SEM, 10 oocytes, read-out: EC50 of glycine-dependent gating): 112 ± 10 µM
- Hill coefficient of glycine-dependent gating [5]: 3.2 ± 0.2
- Hill coefficient of glycine-dependent gating [6]: 2.9 ± 0.1
- Hill coefficient of glycine-dependent gating [7]: 2.5 ± 0.2
- EC50 ([7]; read-out: EC50 of glycine-dependent gating): 163 µM

Compound: Picrotoxin
- IC50 [3, 15]: 6.1 ± 0.3 µM
- Hill coeff of drug-mediated inhibition [3, 14]: 1.2 ± 0.1
- Response 1st screening [1, 12]: failed to identify it
- concentration of picrotoxin that blocks homomeric α GlyRs [10]: ~ 10 μM
- picrotoxin necessary to block heteromeric αβ GlyRs compared with homomeric α GlyRs [11]: ten folds more
- tactile response of zebrafish embryos at 48 hpf [9]: shrinkage of the body
- drug concentration efficient for inducing abnormal touch response [9]: 5000 µM
- IC50 [4]: 6 µM
- IC50 [5, 15]: 94 µM
- Hill coeff of drug-mediated inhibition [5, 14]: **0.5 ± 0.1
- IC50 [6, 15]: 7.2 ± 0.9 µM
- Hill coeff of drug-mediated inhibition [6, 14]: 0.9 ± 0.1
- Hill coeff of drug-mediated inhibition [7]: 0.9 ± 0.0
- IC50 ([7]; read-out: IC50 of inhibition of glycine current): 6.4 ± 0.3 µM
